The IC50 is the point on the concentration scale where inhibition reaches its midpoint.

The values below come from ChEMBL document CHEMBL3352638, “Improving the MDR reversal activity of 6,17-epoxylathyrane diterpenes” (Bioorg Med Chem, 2014).

Data set [1] has as its target T1, ATP-dependent translocase ABCB1 (Homo sapiens, UniProt P08183). The data set is described as follows: Inhibition of human MDR1 expressed in mouse L5178Y cells assessed as Rhodamine-123 accumulation measured as fluorescence activity at 20 uM after 20 mins by flow cytometry relative to control. The class given is cell-based.
The test system of data set [2] is L5178Y. The data set is described as follows: Antiproliferative activity against mouse L5178Y cells after 72 hrs by MTT assay. The class given is functional, cell-based. For orientation: Tetrazolium dyes change colour on reduction, which living cells bring about.
For data set [3], the system named is L5178Y. The data set is described as follows: Antiproliferative activity against human MDR1 transfected mouse L5178Y cells after 72 hrs by MTT assay. The class given is functional, cell-based.
The subject of data set [4] is L5178Y. The data set is described as follows: Antiproliferative activity against human MDR1 transfected mouse L5178Y cells after 48 hrs by MTT assay in presence of doxorubicin. The class given is functional.
Data set [5] has as its target T1, ATP-dependent translocase ABCB1. The data set is described as follows: Inhibition of human MDR1 expressed in mouse L5178Y cells assessed as Rhodamine-123 accumulation measured as fluorescence activity at 80 uM after 20 mins by flow cytometry relative to control. The class given is cell-based. (In general: Flow cytometry measures light scatter and fluorescence of single cells or particles in a stream.)

Data set [6] has the same target. The data set can be described thus: Inhibition of human MDR1 expressed in mouse L5178Y cells assessed as Rhodamine-123 accumulation measured as fluorescence activity at 2 uM after 20 mins by flow cytometry relative to control. The class given is cell-based.
Data set [7] shares this target. The data set is described as follows: Stimulation of vanadate-sensitive ATPase activity of human MDR1 expressed in Sf9 membrane vesicles assessed as inorganic phosphate production at 2 to 100 uM after 10 mins by colorimetry. The class given is cell membranes. The settings on record: sf9, 10 min.
Data set [8] shares this target. The data set is described as follows: Inhibition of human MDR1 expressed in mouse L5178Y cells assessed as Rhodamine-123 accumulation after 20 mins by flow cytometry. The class given is cell-based.
The target is the same in data set [9]. The data set can be described thus: Inhibition of human MDR1 expressed in mouse L5178Y cells assessed as Rhodamine-123 accumulation measured as fluorescence activity at 40 uM after 20 mins by flow cytometry relative to control. The class given is cell-based.
For data set [10] the target is unchanged. The data set is described as follows: Inhibition of verapamil-stimulated vanadate-sensitive ATPase activity of human MDR1 expressed in Sf9 membrane vesicles assessed as inorganic phosphate production at 2 to 100 uM after 10 mins by colorimetry. The class given is cell membranes. To be noted: sf9, 10 min.

T1 sequence (P08183 whole entry): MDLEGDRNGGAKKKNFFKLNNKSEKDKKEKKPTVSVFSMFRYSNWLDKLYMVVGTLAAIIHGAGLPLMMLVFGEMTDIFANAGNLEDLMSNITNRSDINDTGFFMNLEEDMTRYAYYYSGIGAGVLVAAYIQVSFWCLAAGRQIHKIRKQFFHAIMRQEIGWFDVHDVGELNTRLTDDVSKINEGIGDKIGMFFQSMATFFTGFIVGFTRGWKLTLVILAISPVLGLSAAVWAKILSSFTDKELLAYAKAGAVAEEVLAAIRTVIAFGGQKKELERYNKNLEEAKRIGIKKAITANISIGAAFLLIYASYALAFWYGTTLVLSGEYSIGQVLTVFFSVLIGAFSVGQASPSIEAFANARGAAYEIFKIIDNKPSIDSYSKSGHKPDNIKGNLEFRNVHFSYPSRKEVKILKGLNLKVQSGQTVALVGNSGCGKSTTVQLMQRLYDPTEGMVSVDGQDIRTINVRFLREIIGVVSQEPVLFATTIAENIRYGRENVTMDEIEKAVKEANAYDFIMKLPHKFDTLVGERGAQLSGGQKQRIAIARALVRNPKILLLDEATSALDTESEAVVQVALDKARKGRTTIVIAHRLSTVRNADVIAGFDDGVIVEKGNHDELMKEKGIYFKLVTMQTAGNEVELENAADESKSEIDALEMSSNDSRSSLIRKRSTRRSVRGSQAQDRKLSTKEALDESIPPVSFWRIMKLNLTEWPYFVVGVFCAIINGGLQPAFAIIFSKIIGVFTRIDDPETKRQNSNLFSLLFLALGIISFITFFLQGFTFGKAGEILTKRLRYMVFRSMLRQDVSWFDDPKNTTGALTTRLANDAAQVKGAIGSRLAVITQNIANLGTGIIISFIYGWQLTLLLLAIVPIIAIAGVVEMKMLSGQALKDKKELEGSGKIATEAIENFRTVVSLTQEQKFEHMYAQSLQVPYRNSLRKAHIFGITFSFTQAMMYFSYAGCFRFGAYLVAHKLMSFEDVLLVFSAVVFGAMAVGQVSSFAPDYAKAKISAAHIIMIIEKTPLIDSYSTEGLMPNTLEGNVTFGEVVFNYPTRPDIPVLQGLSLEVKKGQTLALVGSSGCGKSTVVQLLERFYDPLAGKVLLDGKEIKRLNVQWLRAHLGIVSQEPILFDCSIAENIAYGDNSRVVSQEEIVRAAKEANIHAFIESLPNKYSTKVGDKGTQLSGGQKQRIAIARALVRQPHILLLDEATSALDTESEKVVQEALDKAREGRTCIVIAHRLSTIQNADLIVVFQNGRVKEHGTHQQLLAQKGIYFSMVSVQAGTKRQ

In the case of `CCC(=O)O[C@@H]1[C@@H]2[C@@H](OC(C)=O)[C@]3(CC[C@H]4[C@@H](/C=C(\C)C(=O)[C@@]2(OC(C)=O)C[C@@H]1C)C4(C)C)CO3`, the Ratio is 1 in data set [1] and 58.6 in data set [5]. The values for the IC50 in the data set with L5178Y [2] and in the data set with L5178Y [3] were 41.6 µM and 43 µM, respectively. Also, in the data set with L5178Y [4], the CI amounted to 0.05.

As for `CCCCC(CC)C(=O)O[C@@H]1[C@@H]2[C@@H](OC(=O)C(CC)CCCC)[C@]3(CC[C@H]4[C@@H](/C=C(\C)C(=O)[C@@]2(O)C[C@@H]1C)C4(C)C)CO3` (some centres not stated), the values for the Ratio in [1] and in data set [6] were 33.2 and 5.6, respectively. For the same compound, the figures for the IC50 in the data set on L5178Y [2] and in the data set with L5178Y [3] were 37 µM and 46.6 µM, respectively. The CI in the data set on L5178Y [4] was found to be 0.46.

Consider `C/C1=C\[C@@H]2[C@H](CC[C@]3(CO3)[C@H](O)[C@H]3[C@@H](OC(=O)/C=C/c4ccccc4)[C@@H](C)C[C@]3(O)C1=O)C2(C)C`, for which the results for the Ratio in data set [1] and in [6] were 7.4 and 3.7, respectively. Also, the IC50 in the data set on L5178Y [2] is 108 µM; in the data set on L5178Y [3], 105 µM. In addition, the CI in the data set on L5178Y [4] worked out at 1.4.

`CCCC(=O)O[C@@H]1[C@@H]2[C@@H](OC(C)=O)[C@]3(CC[C@H]4[C@@H](/C=C(\C)C(=O)[C@@]2(OC(C)=O)C[C@@H]1C)C4(C)C)CO3`: the Ratio in data set [1] turned out to be 74.3; in data set [9], 96.9; in data set [6], 8. For the same compound, the result in data set [7] was Active. Besides, the “inhibition (INH)” value in data set [8] was “Dose-dependent effect”; in data set [10], “Active”. The IC50 in the data set on L5178Y [2] was determined as 46.4 µM; in the data set on L5178Y [3] it was 79.4 µM. The CI with L5178Y [4] worked out at 0.2.

Take `CC(=O)O[C@@H]1[C@@H]2[C@@H](OC(C)=O)[C@]3(CC[C@H]4[C@@H](/C=C(\C)C(=O)[C@@]2(OC(C)=O)C[C@@H]1C)C4(C)C)CO3`: the values for the Ratio in data set [1] and in data set [5] were 1 and 35, respectively. In addition, the IC50 with L5178Y [2] came out at 79.3 µM; with L5178Y [3], 93.5 µM. In the data set with L5178Y [4], the CI came to 0.24.

Regarding `C/C1=C\[C@@H]2[C@H](CC[C@]3(CO3)[C@H](OC(=O)c3ccccc3)[C@H]3[C@@H](OC(=O)c4ccccc4)[C@@H](C)C[C@]3(OC(=O)c3ccccc3)C1=O)C2(C)C`, the Ratio in data set [1] was 35.2; in data set [6], 1.7. Besides, the IC50 with L5178Y [2] worked out at 40.4 µM; in the data set with L5178Y [3] it was 59 µM. Further, the CI in the data set with L5178Y [4] worked out at 0.79.

In the case of `C/C1=C\[C@@H]2[C@H](CC[C@]3(CO3)[C@H](OC(=O)c3ccccc3)[C@H]3[C@@H](OC(=O)c4ccccc4)[C@@H](C)C[C@]3(O)C1=O)C2(C)C`, the values for the Ratio in data set [1] and in [6] were 22.9 and 2, respectively. For the same compound, the IC50 in the data set with L5178Y [2] was 68 µM; with L5178Y [3], 73.3 µM. Further, the CI in the data set with L5178Y [4] is 0.24.

As for `CC(=O)O[C@@H]1[C@H]2[C@@H](OC(=O)CC(C)C)[C@@H](C)C[C@]2(OC(C)=O)C(=O)/C(C)=C/[C@@H]2[C@H](CC[C@]13CO3)C2(C)C`, the Ratio in data set [1] was found to be 7.8; in data set [5], 22.6. The IC50 with L5178Y [2] turned out to be 66.8 µM; with L5178Y [3], 92.5 µM. For the same compound, in the data set on L5178Y [4], the CI is 0.43.

Consider `C/C1=C\[C@@H]2[C@H](CC[C@]3(CO3)[C@H](OC(=O)Cc3ccccc3)[C@H]3[C@@H](OC(=O)Cc4ccccc4)[C@@H](C)C[C@]3(O)C1=O)C2(C)C`, for which the figures for the Ratio in data set [1], in data set [9] and in [6] were 73.4, 80.8 and 3.9, respectively. In addition, the “inhibition (INH)” value in [8] is “Dose-dependent effect”. Moreover, the IC50 came out at 111 µM in the data set on L5178Y [2] and 123 µM with L5178Y [3]. The CI in the data set on L5178Y [4] is 1.38.

Consider `CC(=O)O[C@@H]1[C@H]2[C@@H](OC(=O)c3ccccc3)[C@@H](C)C[C@]2(OC(C)=O)C(=O)/C(C)=C/[C@@H]2[C@H](CC[C@]13CO3)C2(C)C`, for which the Ratio in data set [1] amounted to 80.6; in data set [9], 102.9; in data set [6], 63.4. Further, the result in data set [7] was Active. In addition, the “inhibition (INH)” value in [8] was “Dose-dependent effect”; in [10], “Active”. In addition, the IC50 in the data set on L5178Y [2] came out at 50.4 µM; in the data set with L5178Y [3], 63.3 µM. The CI in the data set on L5178Y [4] came out at 0.27.

Regarding `C/C1=C\[C@@H]2[C@H](CC[C@]3(CO3)[C@H](O)[C@H]3[C@@H](O)[C@@H](C)C[C@]3(O)C1=O)C2(C)C`, the Ratio was 1.5 in data set [1] and 14.8 in data set [5]. In addition, the IC50 in the data set with L5178Y [2] came to 80.9 µM; with L5178Y [3], 89.2 µM. Moreover, the CI in the data set with L5178Y [4] was determined as 0.66.

For `COc1ccc(C(=O)O[C@@H]2[C@@H]3[C@@H](OC(=O)c4ccc(OC)cc4)[C@]4(CC[C@H]5[C@@H](/C=C(\C)C(=O)[C@@]3(O)C[C@@H]2C)C5(C)C)CO4)cc1`, the Ratio in data set [1] was 23.3; in [6] it was 3. Moreover, the IC50 in the data set on L5178Y [2] is 76 µM; in the data set on L5178Y [3], 86.8 µM. Besides, the CI in the data set on L5178Y [4] is listed as 0.36.

As to `C/C1=C\[C@@H]2[C@H](CC[C@]3(CO3)[C@H](OC(=O)c3ccc(C)cc3)[C@H]3[C@@H](OC(=O)c4ccc(C)cc4)[C@@H](C)C[C@]3(O)C1=O)C2(C)C`, the Ratio in data set [1] is given as 26.5; in [6] it was 3.3. Besides, the IC50 in the data set with L5178Y [2] is 36.6 µM; in the data set on L5178Y [3] it was 47.5 µM. Moreover, the CI in the data set with L5178Y [4] came to 0.29.

Turning to `CCCC(=O)O[C@@H]1[C@@H]2[C@@H](OC(=O)CCC)[C@]3(CC[C@H]4[C@@H](/C=C(\C)C(=O)[C@@]2(OC(=O)CCC)C[C@@H]1C)C4(C)C)CO3`, the results for the Ratio in data set [1], in data set [9] and in [6] were 83.7, 98 and 1.5, respectively. Besides, the “inhibition (INH)” value in [8] is “Dose-dependent effect”. The IC50 turned out to be 56.4 µM with L5178Y [2] and 84.4 µM with L5178Y [3]. Also, in the data set on L5178Y [4], the CI came out at 0.33.
